Source: PubChem BioAssay (NCI)
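Protocol summary: plate cells (96-well), add compound at 5 concentrations, incubate 48 h, interpolate endpoints linearly. Abbreviation: GI50, concentration required for 50% inhibition of growth. At the TGI there is no net growth.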

How the values were obtained:
Assay in all cases: growth of human tumour cells (NCI), 48 h
[1] = tested on: BT-549 breast
[2] = tested on: SNB-19 CNS
[3] = tested on: HT29 colon
[4] = tested on: NCI-H226 lung
[5] = tested on: CAKI-1 renal
[6] = tested on: U251 CNS
[7] = tested on: ACHN renal
[8] = tested on: RXF 393 renal
[9] = tested on: HOP-62 NSCLC
[10] = tested on: LOX IMVI melanoma
[11] = tested on: SF-295 CNS
[12] = tested on: NCI-H522 lung
[13] = tested on: SK-MEL-28 melanoma
[14] = tested on: MDA-MB-435
[15] = tested on: PC-3 prostate
[16] = tested on: SF-539 CNS
[17] = tested on: M14 melanoma
[18] = tested on: SN12C renal
[19] = tested on: HCC-2998 colon
[20] = tested on: HCT-15 colon
[21] = tested on: MCF7 breast
[22] = tested on: IGROV1 ovarian
[23] = tested on: SR leukemia
[24] = tested on: SK-MEL-5 melanoma
[25] = tested on: MDA-MB-231 breast
[26] = tested on: NCI/ADR-RES ovarian
[27] = tested on: SW-620 colon
[28] = tested on: OVCAR-3 ovarian
[29] = tested on: A498 renal
[30] = tested on: HL-60(TB) leukemia
[31] = tested on: NCI-H23 lung
[32] = tested on: DU-145 prostate
[33] = tested on: UACC-257 melanoma
[34] = tested on: RPMI-8226 leukemia
[35] = tested on: OVCAR-5 ovarian
[36] = tested on: EKVX NSCLC
[37] = tested on: OVCAR-8 ovarian
[38] = tested on: MOLT-4 leukemia
[39] = tested on: KM12 colon
[40] = tested on: CCRF-CEM leukemia
[41] = tested on: UACC-62 melanoma
[42] = tested on: A549 NSCLC
[43] = tested on: 786-0 renal
[44] = tested on: HOP-92 NSCLC
[45] = tested on: NCI-H460 lung
[46] = tested on: OVCAR-4 ovarian
[47] = tested on: SK-OV-3 ovarian
[48] = tested on: K-562 leukemia
[49] = tested on: COLO 205 colon
[50] = tested on: T-47D breast
[51] = tested on: TK-10 renal
[52] = tested on: SNB-75 CNS
[53] = tested on: SK-MEL-2 melanoma
[54] = tested on: HCT-116 colon
[55] = tested on: UO-31 renal
[56] = tested on: SF-268 CNS
[57] = tested on: MALME-3M melanoma

N#CC(C#N)=C1/C(=C/C=C/C=C/C=C/c2ccc(N3CCCCC3)s2)S(=O)(=O)c2ccccc21
TGI [1]: > 100000 nM | TGI [2]: > 100000 nM | TGI [3]: > 100000 nM | TGI [4]: > 100000 nM | TGI [5]: > 100000 nM | TGI [6]: > 100000 nM | TGI [7]: > 100000 nM | TGI [8]: > 100000 nM | TGI [9]: > 100000 nM | TGI [10]: > 100000 nM | TGI [11]: > 100000 nM | TGI [12]: > 100000 nM | TGI [13]: > 100000 nM | TGI [14]: > 100000 nM | TGI [15]: > 100000 nM | TGI [16]: > 100000 nM | TGI [17]: > 100000 nM | TGI [18]: > 100000 nM | TGI [19]: > 100000 nM | TGI [20]: > 100000 nM | TGI [21]: > 100000 nM | TGI [22]: > 100000 nM | TGI [23]: > 100000 nM | TGI [24]: > 100000 nM | TGI [25]: > 100000 nM | TGI [26]: > 100000 nM | TGI [27]: > 100000 nM | TGI [28]: > 100000 nM | TGI [29]: > 100000 nM | TGI [30]: > 100000 nM | TGI [31]: > 100000 nM | TGI [32]: > 100000 nM | TGI [33]: > 100000 nM | TGI [34]: > 100000 nM | TGI [35]: > 100000 nM | TGI [36]: > 100000 nM | TGI [37]: > 100000 nM | TGI [38]: 63000 nM | TGI [39]: > 100000 nM | TGI [40]: > 100000 nM | TGI [41]: > 100000 nM | TGI [42]: > 100000 nM | TGI [43]: > 100000 nM | TGI [44]: > 100000 nM | TGI [45]: > 100000 nM | TGI [46]: > 100000 nM | TGI [47]: > 100000 nM | TGI [48]: > 100000 nM | TGI [49]: > 100000 nM | TGI [50]: > 100000 nM | TGI [51]: > 100000 nM | TGI [52]: > 100000 nM | TGI [53]: > 100000 nM | TGI [54]: > 100000 nM

COc1ccc2[nH]c(=O)c(/C=C/C(=O)c3ccccc3OC)cc2c1
GI50 [1]: 387 nM | TGI [1]: 2420 nM | GI50 [55]: 958 nM | TGI [55]: 2280 nM | GI50 [2]: 362 nM | TGI [2]: 1790 nM | GI50 [3]: 293 nM | TGI [3]: 1370 nM | GI50 [4]: 3340 nM | TGI [4]: 18500 nM | GI50 [6]: 521 nM | TGI [6]: 1700 nM | GI50 [8]: 1020 nM | TGI [8]: 2570 nM | GI50 [9]: 1240 nM | TGI [9]: 5320 nM | GI50 [10]: 379 nM | TGI [10]: 1610 nM | GI50 [56]: 690 nM | TGI [56]: 10500 nM | GI50 [11]: 529 nM | TGI [11]: 12100 nM | GI50 [12]: 352 nM | TGI [12]: 2060 nM | GI50 [13]: 1520 nM | TGI [13]: 7310 nM | GI50 [14]: 56.4 nM | TGI [14]: 275 nM | GI50 [15]: 842 nM | TGI [15]: 3750 nM | GI50 [16]: 443 nM | TGI [16]: 2490 nM | GI50 [17]: 278 nM | TGI [17]: 1410 nM | GI50 [18]: 537 nM | TGI [18]: 10300 nM | GI50 [19]: 1570 nM | TGI [19]: 3030 nM | GI50 [20]: 395 nM | TGI [20]: 2050 nM | GI50 [21]: 312 nM | TGI [21]: 7480 nM | GI50 [22]: 582 nM | TGI [22]: 17000 nM | GI50 [23]: 65.6 nM | TGI [23]: 10300 nM | GI50 [57]: 766 nM | TGI [57]: 8090 nM | GI50 [24]: 728 nM | TGI [24]: 2080 nM | GI50 [25]: 1440 nM | TGI [25]: 11000 nM | GI50 [26]: 273 nM | TGI [26]: 20000 nM | GI50 [27]: 335 nM | TGI [27]: 2240 nM | GI50 [28]: 359 nM | TGI [28]: 1640 nM | GI50 [29]: 656 nM | TGI [29]: 4550 nM | GI50 [30]: 206 nM | TGI [30]: 883 nM | GI50 [31]: 1330 nM | TGI [31]: 3930 nM | GI50 [32]: 529 nM | TGI [32]: 1960 nM | GI50 [33]: 1380 nM | TGI [33]: 3050 nM | GI50 [34]: 385 nM | TGI [34]: 2210 nM | GI50 [35]: 1970 nM | TGI [35]: 10400 nM | GI50 [36]: 2050 nM | TGI [36]: 10500 nM | GI50 [37]: 874 nM | TGI [37]: 11600 nM | GI50 [38]: 421 nM | TGI [38]: 27100 nM | GI50 [39]: 321 nM | TGI [39]: 1580 nM | GI50 [40]: 392 nM | TGI [40]: > 100000 nM | GI50 [41]: 478 nM | TGI [41]: 2970 nM | GI50 [42]: 2090 nM | TGI [42]: 10400 nM | GI50 [43]: 378 nM | TGI [43]: 1560 nM | GI50 [44]: 1570 nM | TGI [44]: 6170 nM | GI50 [45]: 380 nM | TGI [45]: 2250 nM | GI50 [46]: 4070 nM | TGI [46]: 23200 nM | GI50 [47]: 2230 nM | TGI [47]: 12800 nM | GI50 [48]: 162 nM | TGI [48]: > 100000 nM | GI50 [50]: 1060 nM | TGI [50]: 11800 nM | GI50 [51]: 2310 nM | TGI [51]: 13100 nM | GI50 [52]: 470 nM | TGI [52]: 14200 nM | GI50 [53]: 694 nM | TGI [53]: 4390 nM | GI50 [54]: 348 nM | TGI [54]: 1480 nM
